From ChEMBL document CHEMBL4014287, “Jesridonin in combination with paclitaxel demonstrates synergistic anti-tumor activity in human esophageal carcinoma cells” (Bioorg Med Chem Lett, 2017)
Active and inactive are the calls of the source. No cut-off for these calls is given here.

What was measured:
ECa-109 cell line [1] = experiment: Cytotoxicity against human EC109 cells assessed as combination index at 15 uM in presence of 10 nM paclitaxel; assay type: functional
Mus musculus [2] = experiment: Hepatotoxicity in nude mouse xenografted with human EC109 cells at 10 mg/kg in presence of paclitaxel measured after 21 days by histopathological analysis; assay type: toxicity, organism-based; conditions: in vivo, 504 h
ECa-109 cell line [3] = experiment: Cytotoxicity against human EC109 cells assessed as combination index at 10 uM in presence of 5 nM paclitaxel; assay type: functional
ECa-109 cell line [4] = experiment: Cytotoxicity against human EC109 cells assessed as combination index at 10 uM in presence of 2.5 nM paclitaxel; assay type: functional
ECa-109 cell line [5] = experiment: Antitumor activity against human EC109 cells xenografted in nude mouse assessed as reduction in tumor size at 10 mg/kg in presence of 5 mg/kg paclitaxel measured after 21 days; assay type: functional, organism-based
ECa-109 cell line [6] = experiment: Antitumor activity against human EC109 cells xenografted in nude mouse assessed as induction of necrosis at 10 mg/kg in presence of paclitaxel measured after 21 days by H and E staining based assay; assay type: functional, organism-based
ECa-109 cell line [7] = experiment: Cytotoxicity against human EC109 cells assessed as combination index at 30 uM in presence of 10 nM paclitaxel; assay type: functional
ECa-109 cell line [8] = experiment: Cytotoxicity against human EC109 cells assessed as combination index at 30 uM in presence of 5 nM paclitaxel; assay type: functional
ECa-109 cell line [9] = experiment: Induction of apoptosis in human EC109 cells assessed as increase in Bid level at 15 uM in presence of 5 nM paclitaxel by Western blot method; assay type: functional, cell-based
ECa-109 cell line [10] = experiment: Antitumor activity against human EC109 cells xenografted in nude mouse assessed as reduction in tumor volume at 10 mg/kg in presence of 5 mg/kg paclitaxel measured after 21 days; assay type: functional, organism-based
Mus musculus [11] = experiment: Nephrotoxicity in nude mouse xenografted with human EC109 cells at 10 mg/kg in presence of paclitaxel measured after 21 days by histopathological analysis; assay type: toxicity, organism-based; conditions: in vivo, 504 h
ECa-109 cell line [12] = experiment: Cytotoxicity against human EC109 cells assessed as combination index at 10 uM in presence of 10 nM paclitaxel; assay type: functional
Mus musculus [13] = experiment: Toxicity in nude mouse xenografted with human EC109 cells assessed as body weight loss at 10 mg/kg in presence of paclitaxel measured after 21 days; assay type: organism-based; conditions: in vivo, 504 h
ECa-109 cell line [14] = experiment: Induction of apoptosis in human EC109 cells assessed as decrease in Mcl-1 level at 15 uM in presence of 5 nM paclitaxel by Western blot method; assay type: functional, cell-based
Mus musculus [15] = experiment: Hepatotoxicity in nude mouse xenografted with human EC109 cells assessed as change in serum ALT level at 10 mg/kg in presence of paclitaxel measured after 21 days; assay type: toxicity, organism-based; conditions: in vivo, 504 h
Mus musculus [16] = experiment: Toxicity in nude mouse xenografted with human EC109 cells assessed as effect on lungs at 10 mg/kg in presence of paclitaxel measured after 21 days by histopathological analysis; assay type: organism-based; conditions: in vivo, 504 h
Mus musculus [17] = experiment: Hepatotoxicity in nude mouse xenografted with human EC109 cells assessed as change in serum ALP level at 10 mg/kg in presence of paclitaxel measured after 21 days; assay type: toxicity, organism-based; conditions: in vivo, 504 h
ECa-109 cell line [18] = experiment: Induction of apoptosis in human EC109 cells assessed as late apoptotic cells at 15 uM after 24 hrs by Annexin V-FITC/propidium iodide staining based flow cytometry (reference value: 1%); assay type: functional
Mus musculus [19] = experiment: Toxicity in nude mouse xenografted with human EC109 cells assessed as pathological changes at 10 mg/kg measured after 21 days; assay type: organism-based; conditions: in vivo, 504 h
ECa-109 cell line [20] = experiment: Antitumor activity against human EC109 cells xenografted in nude mouse assessed as tumor growth inhibition at 10 mg/kg in presence of 5 mg/kg paclitaxel measured after 21 days relative to control; assay type: functional
Mus musculus [21] = experiment: Toxicity in nude mouse xenografted with human EC109 cells assessed as pathological changes at 10 mg/kg in presence of paclitaxel measured after 21 days; assay type: organism-based; conditions: in vivo, 504 h
ECa-109 cell line [22] = experiment: Induction of apoptosis in human EC109 cells assessed as nuclear shrinkage at 15 uM in presence of 5 nM paclitaxel after 24 hrs by Hochest 33258 staining based fluorescent microscopic analysis; assay type: functional, cell-based
ECa-109 cell line [23] = experiment: Cytotoxicity against human EC109 cells assessed as combination index at 30 uM in presence of 2.5 nM paclitaxel; assay type: functional
Mus musculus [24] = experiment: Hepatotoxicity in nude mouse xenografted with human EC109 cells assessed as change in serum AST level at 10 mg/kg in presence of paclitaxel measured after 21 days; assay type: toxicity, organism-based; conditions: in vivo, 504 h
ECa-109 cell line [25] = experiment: Induction of apoptosis in human EC109 cells assessed as decrease in Bcl-XL level at 15 uM in presence of 5 nM paclitaxel by Western blot method; assay type: functional, cell-based
ECa-109 cell line [26] = experiment: Cytotoxicity against human EC109 cells assessed as combination index at 5 uM in presence of 10 nM paclitaxel; assay type: functional
ECa-109 cell line [27] = experiment: Induction of apoptosis in human EC109 cells assessed as nuclear condensation at 15 uM after 24 hrs by Hochest 33258 staining based fluorescent microscopic analysis; assay type: functional, cell-based
ECa-109 cell line [28] = experiment: Cytotoxicity against human EC109 cells assessed as combination index at 5 uM in presence of 5 nM paclitaxel; assay type: functional
ECa-109 cell line [29] = experiment: Induction of apoptosis in human EC109 cells assessed as nuclear condensation at 15 uM in presence of 5 nM paclitaxel after 24 hrs by Hochest 33258 staining based fluorescent microscopic analysis; assay type: functional, cell-based

C=C1C(=O)[C@@]23[C@@H]4OC(c5ccc(Cl)cc5)O[C@@]25OC[C@@]2([C@H]([C@@H]5O)C(C)(C)CC[C@@H]2O)[C@@H]3CC[C@@H]14 (some centres undefined)
CI (ECa-109 cell line [1]): 0.68
Activity (Mus musculus [2]): Non-Toxic
CI (ECa-109 cell line [3]): 0.43
CI (ECa-109 cell line [4]): 0.56
Activity (ECa-109 cell line [5]): Active
Activity (ECa-109 cell line [6]): Active
CI (ECa-109 cell line [7]): 1.12
CI (ECa-109 cell line [8]): 0.93
Activity (ECa-109 cell line [9]): Active
Activity (ECa-109 cell line [10]): Active
Activity (Mus musculus [11]): Non-Toxic
CI (ECa-109 cell line [12]): 0.43
Activity (Mus musculus [13]): Non-Toxic
Activity (ECa-109 cell line [14]): Active
Activity (Mus musculus [15]): Non-Toxic
Activity (Mus musculus [16]): Non-Toxic
Activity (Mus musculus [17]): Non-Toxic
Activity (ECa-109 cell line [18]): 5.3%
Activity (Mus musculus [19]): Non-Toxic
TGI (ECa-109 cell line [20]): 77.21%
Activity (Mus musculus [21]): Non-Toxic
Activity (ECa-109 cell line [22]): Active
CI (ECa-109 cell line [23]): 1.15
Activity (Mus musculus [24]): Non-Toxic
Activity (ECa-109 cell line [25]): Active
CI (ECa-109 cell line [26]): 0.48
Activity (ECa-109 cell line [27]): Active
CI (ECa-109 cell line [28]): 0.75
Activity (ECa-109 cell line [29]): Active
